Laboratory results: publication PMC5218480 (PLoS ONE, 2017)

Test system: MV-4-11 cells
Assay: Gene expression microarray analysis (Affymetrix PrimeView) and GSEA
Type: cell-based, human
Parameters: RFU PODN (11730768_x_at) / Fold change /veh PODN (11730768_x_at) / RFU LINC00158 (11744669_a_at) / Fold change /veh LINC00158 (11744669_a_at) / RFU DUSP10 (11751237_a_at) / Fold change /veh DUSP10 (11751237_a_at) / RFU ID3 (11757404_x_at) / Fold change /veh ID3 (11757404_x_at) / RFU PLEKHG5 (11737974_s_at) / Fold change /veh PLEKHG5 (11737974_s_at) / RFU LRRC4B (11730491_at) / Fold change /veh LRRC4B (11730491_at) / RFU GIMAP4 (11747438_a_at) / Fold change /veh GIMAP4 (11747438_a_at) / RFU KRT8 (11758183_x_at) / Fold change /veh KRT8 (11758183_x_at) / RFU CNN1 (11734310_a_at) / Fold change /veh CNN1 (11734310_a_at) / RFU VPS37D (11726825_at) / Fold change /veh VPS37D (11726825_at) / RFU C10orf10 (11716522_x_at) / Fold change /veh C10orf10 (11716522_x_at) / RFU KIR2DL2 /// KIR2DL4 /// KIR2DL5A /// KIR2DL5B /// KIR2DS1 /// KIR2DS2 /// KIR2DS3 /// KIR2DS4 /// KIR3DL3 /// KIR3DL3 /// KIR3DS1 (11738374_at) / Fold change /veh KIR2DL2 /// KIR2DL4 /// KIR2DL5A /// KIR2DL5B /// KIR2DS1 /// KIR2DS2 /// KIR2DS3 /// KIR2DS4 /// KIR3DL3 /// KIR3DL3 /// KIR3DS1 (11738374_at) / RFU C1QL1 (11718748_at) / Fold change /veh C1QL1 (11718748_at) / RFU TMPRSS4 (11747572_a_at) / Fold change /veh TMPRSS4 (11747572_a_at) / RFU HAMP (11756126_x_at) / Fold change /veh HAMP (11756126_x_at) / RFU RNFT2 (11725882_a_at) / Fold change /veh RNFT2 (11725882_a_at) / RFU NR4A2 (11747474_a_at) / Fold change /veh NR4A2 (11747474_a_at) / RFU ABCC12 (11746883_a_at) / Fold change /veh ABCC12 (11746883_a_at) / RFU TMEM136 (11760407_x_at) / Fold change /veh TMEM136 (11760407_x_at) / RFU CLDN22 /// WWC2 (11732394_at) / Fold change /veh CLDN22 /// WWC2 (11732394_at) / RFU HLA-DPB1 (11760878_x_at) / Fold change /veh HLA-DPB1 (11760878_x_at) / RFU SPINT1 (11716480_a_at) / Fold change /veh SPINT1 (11716480_a_at) / RFU GAP43 (11754022_s_at) / Fold change /veh GAP43 (11754022_s_at) / RFU A4GNT (11735810_at) / Fold change /veh A4GNT (11735810_at) / RFU PRB3 (11715151_x_at) / Fold change /veh PRB3 (11715151_x_at) / RFU TUBB4B (11761932_at) / Fold change /veh TUBB4B (11761932_at) / RFU CAPN14 (11732068_a_at) / Fold change /veh CAPN14 (11732068_a_at) / RFU TMCC2 (11721928_a_at) / Fold change /veh TMCC2 (11721928_a_at) / RFU IRGQ (11745062_a_at) / Fold change /veh IRGQ (11745062_a_at) / RFU FAM174B (11720279_a_at) / Fold change /veh FAM174B (11720279_a_at) / RFU TMPRSS4 (11748680_a_at) / Fold change /veh TMPRSS4 (11748680_a_at) / RFU FAM212B (11763350_a_at) / Fold change /veh FAM212B (11763350_a_at) / RFU PLEKHG5 (11743358_a_at) / Fold change /veh PLEKHG5 (11743358_a_at) / RFU ZSCAN30 (11745921_a_at) / Fold change /veh ZSCAN30 (11745921_a_at) / RFU CMKLR1 (11741424_a_at) / Fold change /veh CMKLR1 (11741424_a_at) / RFU LOC101060620 /// MAPK8IP1 (11723275_at) / Fold change /veh LOC101060620 /// MAPK8IP1 (11723275_at) / RFU SPTSSB (11747773_x_at) / Fold change /veh SPTSSB (11747773_x_at) / RFU PRSS12 (11739890_at) / Fold change /veh PRSS12 (11739890_at) / RFU BIN1 (11741810_x_at) / Fold change /veh BIN1 (11741810_x_at) / RFU WNT11 (11732464_a_at) / Fold change /veh WNT11 (11732464_a_at) / RFU C10orf10 (11716521_a_at) / Fold change /veh C10orf10 (11716521_a_at) / RFU C5orf56 (11738089_at) / Fold change /veh C5orf56 (11738089_at) / RFU CYB561 (11721691_x_at) / Fold change /veh CYB561 (11721691_x_at) / RFU ANKRD19P (11752326_a_at) / Fold change /veh ANKRD19P (11752326_a_at) / RFU OR2T12 /// OR2T33 /// OR2T8 (11738714_s_at) / Fold change /veh OR2T12 /// OR2T33 /// OR2T8 (11738714_s_at) / RFU VCAN (11748164_a_at) / Fold change /veh VCAN (11748164_a_at) / RFU JSRP1 (11732532_at) / Fold change /veh JSRP1 (11732532_at) / RFU KRTAP10-11 (11738290_x_at) / Fold change /veh KRTAP10-11 (11738290_x_at) / RFU MYO3A (11730013_a_at) / Fold change /veh MYO3A (11730013_a_at) / RFU EBF3 (11725865_a_at) / Fold change /veh EBF3 (11725865_a_at) / RFU CAMK2N1 (11719241_x_at) / Fold change /veh CAMK2N1 (11719241_x_at) / RFU C5orf56 (11738088_a_at) / Fold change /veh C5orf56 (11738088_a_at) / RFU OLFML3 (11715873_a_at) / Fold change /veh OLFML3 (11715873_a_at) / RFU LOC100653217 /// NTM (11731650_a_at) / Fold change /veh LOC100653217 /// NTM (11731650_a_at) / RFU MAPK11 (11762145_a_at) / Fold change /veh MAPK11 (11762145_a_at) / RFU FIZ1 (11724087_x_at) / Fold change /veh FIZ1 (11724087_x_at) / RFU OASL (11726364_x_at) / Fold change /veh OASL (11726364_x_at) / RFU SOX15 (11748057_x_at) / Fold change /veh SOX15 (11748057_x_at) / RFU CD79A (11719716_a_at) / Fold change /veh CD79A (11719716_a_at) / RFU HIST1H1D (11736915_at) / Fold change /veh HIST1H1D (11736915_at) / RFU CASKIN2 (11723855_a_at) / Fold change /veh CASKIN2 (11723855_a_at) / RFU LOC730098 (11760151_x_at) / Fold change /veh LOC730098 (11760151_x_at) / RFU OR4N2 (11742367_at) / Fold change /veh OR4N2 (11742367_at) / RFU PRRT2 (11749266_a_at) / Fold change /veh PRRT2 (11749266_a_at) / RFU SNX32 (11753110_a_at) / Fold change /veh SNX32 (11753110_a_at) / RFU CDHR5 (11726645_a_at) / Fold change /veh CDHR5 (11726645_a_at) / RFU RCAN1 (11760418_a_at) / Fold change /veh RCAN1 (11760418_a_at) / RFU FAM167A (11723789_a_at) / Fold change /veh FAM167A (11723789_a_at) / RFU FAM26E (11764081_at) / Fold change /veh FAM26E (11764081_at) / RFU ISYNA1 (11749810_s_at) / Fold change /veh ISYNA1 (11749810_s_at) / RFU ACY1 (11761880_at) / Fold change /veh ACY1 (11761880_at) / RFU 11764098_at / Fold change /veh 11764098_at / RFU SAMD14 (11745864_x_at) / Fold change /veh SAMD14 (11745864_x_at) / RFU NPB (11741838_a_at) / Fold change /veh NPB (11741838_a_at) / RFU TMPRSS6 (11731388_a_at) / Fold change /veh TMPRSS6 (11731388_a_at) / RFU KRTAP10-2 (11738614_at) / Fold change /veh KRTAP10-2 (11738614_at) / RFU ARHGAP8 /// PRR5-ARHGAP8 (11727945_x_at) / Fold change /veh ARHGAP8 /// PRR5-ARHGAP8 (11727945_x_at) / RFU KRTAP5-7 /// NADSYN1 (11734609_at) / Fold change /veh KRTAP5-7 /// NADSYN1 (11734609_at) / RFU RASL12 (11751679_a_at) / Fold change /veh RASL12 (11751679_a_at) / RFU CDKN2B (11736163_a_at) / Fold change /veh CDKN2B (11736163_a_at) / RFU PRF1 (11729649_at) / Fold change /veh PRF1 (11729649_at) / RFU, ZNF638 /// ZNF638-IT1 / Fold change vs veh, ZNF638 /// ZNF638-IT1 / RFU, PANK3 / Fold change vs veh, PANK3 / RFU, SH3YL1 / Fold change vs veh, SH3YL1 / RFU, ZEB2 / Fold change vs veh, ZEB2 / RFU, NRIP1 / Fold change vs veh, NRIP1 / RFU, PTTG1IP / Fold change vs veh, PTTG1IP / RFU, CAPN2 / Fold change vs veh, CAPN2 / RFU, MED14 / Fold change vs veh, MED14 / RFU, SNORA58 / Fold change vs veh, SNORA58 / RFU, C1orf63 / Fold change vs veh, C1orf63 / RFU, LRRFIP1 / Fold change vs veh, LRRFIP1 / RFU, NDUFAF7 / Fold change vs veh, NDUFAF7 / RFU, SLC12A2 / Fold change vs veh, SLC12A2 / RFU, IBTK / Fold change vs veh, IBTK / RFU, ESF1 / Fold change vs veh, ESF1 / Fold change vs veh, TMEM50B / RFU, TAOK1 / Fold change vs veh, TAOK1 / RFU, ACBD3 / Fold change vs veh, ACBD3 / RFU, TMA16 / Fold change vs veh, TMA16 / RFU, RWDD3 / Fold change vs veh, RWDD3 / RFU, BCAT1 / Fold change vs veh, BCAT1 / RFU, EDEM3 / Fold change vs veh, EDEM3 / RFU, TMEM33 / Fold change vs veh, TMEM33 / RFU, WDR75 / Fold change vs veh, WDR75 / RFU, AHCTF1 / Fold change vs veh, AHCTF1 / RFU, TFRC / Fold change vs veh, TFRC / RFU, ZDHHC17 / Fold change vs veh, ZDHHC17 / RFU, NOM1 / Fold change vs veh, NOM1 / RFU, ARL8B / Fold change vs veh, ARL8B / RFU, ZBTB11 / Fold change vs veh, ZBTB11 / RFU, TAMM41 / Fold change vs veh, TAMM41 / RFU, KIAA1704 /// LOC100996395 / Fold change vs veh, KIAA1704 /// LOC100996395 / RFU, ING1 / Fold change vs veh, ING1 / RFU, TRMT61B / Fold change vs veh, TRMT61B / RFU, FUBP3 / Fold change vs veh, FUBP3 / RFU, TP53 / Fold change vs veh, TP53 / RFU, TNKS2 / Fold change vs veh, TNKS2 / RFU, ZFP14 / Fold change vs veh, ZFP14 / RFU, ACTR2 / Fold change vs veh, ACTR2 / RFU, PPP3R1 / Fold change vs veh, PPP3R1 / RFU, PIK3R1 / Fold change vs veh, PIK3R1 / RFU, HNRNPA1 / Fold change vs veh, HNRNPA1 / RFU, RNF170 / Fold change vs veh, RNF170 / RFU, ZNF28 / Fold change vs veh, ZNF28 / RFU, RNGTT / Fold change vs veh, RNGTT / RFU, OGT / Fold change vs veh, OGT / RFU, BRD1 / Fold change vs veh, BRD1 / RFU, MARS / Fold change vs veh, MARS / RFU, ZNF655 / Fold change vs veh, ZNF655 / RFU, FAHD1 / Fold change vs veh, FAHD1 / RFU, BDP1 / Fold change vs veh, BDP1 / RFU, LRRCC1 / Fold change vs veh, LRRCC1 / RFU, ARID1A / Fold change vs veh, ARID1A / RFU, ZNF146 / Fold change vs veh, ZNF146 / RFU, ZNF330 / Fold change vs veh, ZNF330 / RFU, GPN3 / Fold change vs veh, GPN3 / RFU, C9orf123 / Fold change vs veh, C9orf123 / RFU, N4BP2L2 / Fold change vs veh, N4BP2L2 / RFU, ARFIP1 / Fold change vs veh, ARFIP1 / RFU, FAM179B / Fold change vs veh, FAM179B / RFU, BCL10 / Fold change vs veh, BCL10 / RFU, UHRF1BP1L / Fold change vs veh, UHRF1BP1L / RFU, BET1 / Fold change vs veh, BET1 / RFU, CNOT2 / Fold change vs veh, CNOT2 / RFU, ZNF268 / Fold change vs veh, ZNF268 / Fold change vs veh, ZNF507 / RFU, DGCR2 / Fold change vs veh, DGCR2 / RFU, WDSUB1 / Fold change vs veh, WDSUB1 / Fold change vs veh, HSP90B1 /// MIR3652 / RFU, ADSS / Fold change vs veh, ADSS / RFU, GK / Fold change vs veh, GK / RFU, ZNF148 / Fold change vs veh, ZNF148 / RFU, TAF9 / Fold change vs veh, TAF9 / RFU, SLC1A5 / Fold change vs veh, SLC1A5 / RFU, SLMO2 / Fold change vs veh, SLMO2 / RFU, ABCC4 / Fold change vs veh, ABCC4 / RFU, LOC101060439 /// RAP1B / Fold change vs veh, LOC101060439 /// RAP1B / RFU, RFX7 / Fold change vs veh, RFX7 / RFU, GTPBP10 / Fold change vs veh, GTPBP10 / RFU, CNEP1R1 / Fold change vs veh, CNEP1R1 / RFU, BIVM-ERCC5 /// ERCC5 / Fold change vs veh, BIVM-ERCC5 /// ERCC5 / RFU, ILF3 / Fold change vs veh, ILF3 / RFU 11762660_at / Fold change /veh 11762660_at / RFU VCAN (11757783_s_at) / Fold change /veh VCAN (11757783_s_at) / RFU DDX43 (11728927_at) / Fold change /veh DDX43 (11728927_at) / RFU KRT8 (11758188_x_at) / Fold change /veh KRT8 (11758188_x_at) / RFU NKD1 (11759106_at) / Fold change /veh NKD1 (11759106_at) / RFU SRD5A1 (11742802_a_at) / Fold change /veh SRD5A1 (11742802_a_at) / RFU TPSAB1 /// TPSB2 (11721975_s_at) / Fold change /veh TPSAB1 /// TPSB2 (11721975_s_at) / RFU GSTM3 (11746129_a_at) / Fold change /veh GSTM3 (11746129_a_at) / RFU IL23R (11737362_x_at) / Fold change /veh IL23R (11737362_x_at) / RFU TMEM51 (11727254_a_at) / Fold change /veh TMEM51 (11727254_a_at) / RFU PIWIL2 (11732686_x_at) / Fold change /veh PIWIL2 (11732686_x_at) / RFU ORM1 (11744905_x_at) / Fold change /veh ORM1 (11744905_x_at) / RFU CCDC152 (11743942_at) / Fold change /veh CCDC152 (11743942_at) / RFU ECM1 (11717891_a_at) / Fold change /veh ECM1 (11717891_a_at) / RFU IL23R (11748794_a_at) / Fold change /veh IL23R (11748794_a_at) / RFU TNFAIP8L3 (11732012_x_at) / Fold change /veh TNFAIP8L3 (11732012_x_at) / RFU MBOAT4 (11741988_at) / Fold change /veh MBOAT4 (11741988_at) / RFU 11764193_at / Fold change /veh 11764193_at / RFU TMEM53 (11763286_at) / Fold change /veh TMEM53 (11763286_at) / RFU MAGEB2 (11727129_at) / Fold change /veh MAGEB2 (11727129_at) / RFU TMEM200A (11744735_a_at) / Fold change /veh TMEM200A (11744735_a_at) / RFU CCDC152 (11751479_a_at) / Fold change /veh CCDC152 (11751479_a_at) / RFU FAM211A (11726209_a_at) / Fold change /veh FAM211A (11726209_a_at) / RFU RGS16 (11746705_a_at) / Fold change /veh RGS16 (11746705_a_at) / RFU VCAN (11755009_s_at) / Fold change /veh VCAN (11755009_s_at) / RFU RHOB (11743442_s_at) / Fold change /veh RHOB (11743442_s_at) / RFU RGS16 (11720943_a_at) / Fold change /veh RGS16 (11720943_a_at) / RFU RGS16 (11720944_at) / Fold change /veh RGS16 (11720944_at) / RFU, VPS4B / Fold change vs veh, VPS4B / RFU, CREB1 / Fold change vs veh, CREB1 / RFU, DNAJC13 / Fold change vs veh, DNAJC13 / RFU, GNAQ / Fold change vs veh, GNAQ / RFU, CDK5R1 / Fold change vs veh, CDK5R1 / RFU, ZRANB3 / Fold change vs veh, ZRANB3 / RFU, CUL4A / Fold change vs veh, CUL4A / RFU, CCNY / Fold change vs veh, CCNY / RFU, UFL1 / Fold change vs veh, UFL1 / RFU, COG3 / Fold change vs veh, COG3 / RFU, DIAPH2 / Fold change vs veh, DIAPH2 / RFU, SKA2 / Fold change vs veh, SKA2 / RFU, AFF3 / Fold change vs veh, AFF3 / RFU, LMF1 / Fold change vs veh, LMF1 / RFU, IPO11 / Fold change vs veh, IPO11 / RFU, DFFB / Fold change vs veh, DFFB / RFU, FOXP1 / Fold change vs veh, FOXP1 / RFU, CARD8 / Fold change vs veh, CARD8 / RFU, STRN3 / Fold change vs veh, STRN3 / RFU, ADK / Fold change vs veh, ADK / RFU, RASSF2 / Fold change vs veh, RASSF2 / RFU, WIPF1 / Fold change vs veh, WIPF1 / RFU, LARP1B / Fold change vs veh, LARP1B / RFU, RASA1 / Fold change vs veh, RASA1 / RFU, RB1 / Fold change vs veh, RB1 / RFU, PPFIA1 / Fold change vs veh, PPFIA1 / RFU, MAT2A / Fold change vs veh, MAT2A / RFU, CCT5 / Fold change vs veh, CCT5 / RFU, WDR92 / Fold change vs veh, WDR92 / RFU, CUX1 / Fold change vs veh, CUX1 / RFU, TTC7A / Fold change vs veh, TTC7A / RFU, TMEM135 / Fold change vs veh, TMEM135 / RFU, DEPTOR / Fold change vs veh, DEPTOR / RFU, CPM / Fold change vs veh, CPM / RFU, DNAJB6 / Fold change vs veh, DNAJB6 / RFU, CACNA2D3 / Fold change vs veh, CACNA2D3 / RFU, DTX4 / Fold change vs veh, DTX4 / RFU, TFCP2 / Fold change vs veh, TFCP2 / RFU, GMCL1 /// GMCL1P1 / Fold change vs veh, GMCL1 /// GMCL1P1 / RFU, AEBP2 / Fold change vs veh, AEBP2 / RFU, SNHG1 /// SNORD22 /// SNORD25 /// SNORD26 /// SNORD27 /// SNORD28 /// SNORD29 /// SNORD31 / Fold change vs veh, SNHG1 /// SNORD22 /// SNORD25 /// SNORD26 /// SNORD27 /// SNORD28 /// SNORD29 /// SNORD31 / Fold change (Aza/veh), C12orf56 (ProbeSet 11735607_a_at) / Fold change (ACY-1035/veh), C12orf56 (ProbeSet 11735607_a_at) / Fold change (Aza/veh), FGFR1OP (ProbeSet 11751329_s_at) / Fold change (ACY-1035/veh), FGFR1OP (ProbeSet 11751329_s_at) / Fold change (Aza/veh), VPS36 (ProbeSet 11739960_a_at) / Fold change (ACY-1035/veh), VPS36 (ProbeSet 11739960_a_at) / RFU SYPL1 (11715823_x_at) / Fold change /veh SYPL1 (11715823_x_at) / RFU IGFBP7 (11715501_s_at) / Fold change /veh IGFBP7 (11715501_s_at) / RFU REEP3 (11722064_at) / Fold change /veh REEP3 (11722064_at) / RFU IGLL1 (11728026_x_at) / Fold change /veh IGLL1 (11728026_x_at): dose or concentration left out as unconfirmed
Details: ProbeSet 11762504_a_at; LIST D

Nc1ncn([C@@H]2O[C@H](CO)[C@@H](O)[C@H]2O)c(=O)n1 [azacitidine]
Fold change vs veh, ZRANB3: 0.82
